Here are results for ten compounds from patent publication US6432640B1, “P53-induced apoptosis” (priority 1997, dated 2002).

Common to all, as to format: cell-based, human
The test system of data set [1] is DLD-1 cells. The data set can be described thus: p53-induced apoptosis in Ad-p53-infected CRC cells (H33258 staining). The conditions noted are these: for block of apoptosis: inhibitor given at (up to) 8 hours following Ad-p53 infection, apoptosis at 24 hours. The method, then:
(§1) Cells and RNA. All cell lines used in this study were obtained from the American Type Culture Collection and were cultured in McCoy's medium supplemented with 10% fetal bovine serum (FBS). Cells were infected with recombinant adenoviruses containing either the p53 gene or the β-galactosidase gene (26) at a multiplicity of infection of 10-100. RNA was purified from cells at various times after infection using the MessageMaker Kit (Gibco/BRL). Northern blot analysis was performed as described (26).
(§2) Flow cytometry and other assays. Cells were collected with the aid of trypsin and incubated with CM-H2DCF-DA or NAO (Molecular Probes, Eugene, Oreg.) at concentrations of 10 and 0.4 μM, respectively, for 20 minutes at 37° C. prior to analysis by flow cytometry (14,15). To determine the fraction of apoptotic cells after various treatments, cells were stained with the DNA-binding dye H33258 and evaluated by fluorescence microscopy or flow cytometry as described (1). Superoxide production was assessed with lucigenin (29). In brief, 4-5×10^6 cells were collected with rubber policeman and resuspended in 1 ml of Earle's Balanced Salt Solution (Gibco BRL 14015-069, Life Technologies). Dark-adapted lucigenin (bis-N-methulacridinium nitrate, Sigma M8010) was added to the samples to a final concentration of 20 μM. Light emission was detected using a Berthold LB 9505C luminometer for 60 minutes at 37° C. Glutathione concentrations were measured using an assay kit purchased from Oxford Biomedical Res. Inc. according to the manufacturer's instructions. Caspase activation was assessed by cleavage of PARP (polyADP-ribose polymerase). Lysates from cells infected with Ad-p53 were Western blotted with an anti-PARP antibody, and the cleavage fragments were quantitated by densitometry (4).
To evaluate the patterns of gene expression following p53 expression, we employed SAGE, a technique which allows the quantitative evaluation of cellular mRNA populations (3). In brief, the method revolves around short sequence “tags” (11 bp), generated from defined positions within each mRNA molecule. Expression patterns are deduced from the abundance of individual tags. […] As previously shown, DLD-1 cells are among the ˜50% of CRC lines that undergo apoptosis in response to p53 (4). RNA was purified from cells 16 hours after infection, at least 8 hours before the onset of morphological signs of apoptosis.
To determine whether these steps were causally associated, we inhibited each step with specific pharmacologic agents and determined the effect of this inhibition on other components of the pathway.

The test system of data set [2] is DLD-1 cells. The data set can be described thus: ROS production in Ad-p53-infected cells (lucigenin chemiluminescence). Particulars: treated 12 hours after Ad-p53 infection. The method, then: as §2, with “(4). […]” for “(4).”
Another data set relates to PIGs (p53-induced genes). The data set can be described thus: PIG expression in DLD-1 cells (Northern blot). The conditions noted are these: for PIG induction by other inducers of ROS or apoptosis: DLD-1 cells. The method, then:
as §1
To determine the specificity of PIG expression for the p53-dependent apoptotic process, we performed experiments with other inducers of ROS or apoptosis.

The subject of data set [3] is DLD-1 cells. The data set can be described thus: p53-mediated growth arrest dependent on p21 (flow cytometry). The method, then:
as §2, with “(4). […]” for “(4).”

In data set [4] the test system is DLD-1 cells. The data set can be described thus: Toxicity of inhibitor to cells at the dose used. Particulars: 100 μM. The method, then:
Finally, we treated cells with bongkrekic acid (BA), a specific inhibitor of mitochondrial ATP translocase which can block the mitochondrial permeability transition pore opening thought to be required for ROS-dependent forms of apoptosis (13). […] BA was non-toxic at the dose used (100 μM). While BA inhibited the p53-apoptotic process dependent on ROS production, it had no effect on the p53-mediated growth arrest dependent on p21 as assessed by flow cytometry.

A further data set has as its system PIG3. The data set can be described thus: PIG3 induction by endogenous p53 in six CRC cancer cell lines. The method, then: as §1
As a further test of the p53-dependency of PIG3 induction, we determined whether PIG3 could be induced by endogenous p53 rather than through the exogenous Ad-p53 source. Six CRC cancer cell lines were each treated with adriamycin, a DNA-damaging and apoptotic-inducing agent known to increase endogenous p53 levels.

Data set [5] deals with DLD-1 cells. The data set can be described thus: Cell death by other inducers of apoptosis. The method, then:
as §2, with “(4). […]” for “(4).”

Data set [6] concerns DLD-1 cells. Description: ROS by CM-DCF-DA and cardiolipin by NAO, flow cytometry. The method, then: FIG. 4A. DLD-1 cells were infected with Ad-p53 or control (Ad-lacZ) viruses and harvested after 27, 35, or 42 hours. Cells were incubated with CM-DCF-DA, a probe of ROS, or NAO, a probe of the mitochondrial membrane cardiolipin, and analyzed by flow cytometry. The mean fluorescence of the control cells is indicated by vertical lines in each box. The pro-oxidant drug menadione was used as a positive control to induce oxidative stress.
Flow cytometry and other assays. […] To determine the fraction of apoptotic cells after various treatments, cells were stained with the DNA-binding dye H33258 and evaluated by fluorescence microscopy or flow cytometry as described (1). Superoxide production was assessed with lucigenin (29). […] Light emission was detected using a Berthold LB 9505C luminometer for 60 minutes at 37° C. Glutathione concentrations were measured using an assay kit purchased from Oxford Biomedical Res. Inc. according to the manufacturer's instructions. Caspase activation was assessed by cleavage of PARP (polyADP-ribose polymerase). Lysates from cells infected with Ad-p53 were Western blotted with an anti-PARP antibody, and the cleavage fragments were quantitated by densitometry (4). […]
In general terms: In flow cytometry, cells or beads pass a laser one at a time.

[7] abbreviates: 100 μM, treated 12 hours after Ad-p53 infection.

Take `CO[C@H](C/C=C\C=C\CC/C=C/C[C@H](C)/C=C/C(=C\C(=O)O)CC(=O)O)/C(C)=C\C=C(/C)C(=O)O` [BA, bongkrekic acid]: the “inhibition of subsequent apoptosis” value in the data set on DLD-1 cells [1] (setting [7]) is 86-93%. The ROS production entry in the data set with DLD-1 cells [2] (100 μM) is “inhibit neither”. Also, the PIG3 expression entry in the data set with PIGs (p53-induced genes) (setting [7]) is listed as “inhibit neither”. In the data set on DLD-1 cells [3], the “effect on p53-mediated growth arrest dependent on p21” value was “no effect”. Besides, in the data set on DLD-1 cells [4], the “toxicity at the dose used” value is listed as “non-toxic”.
For `c1ccc2c(c1)[I+]c1ccccc1-2` [DPI, diphenyleneiodonium chloride], the inhibition (in general, the change of the read-out against control, counted positive when it falls) at 25 µM with DLD-1 cells [1] (Homo sapiens, DLD-1, 25 μM, treated 12 hours after Ad-p53 infection, measured 12 hours later, three independent experiments) lay within 73 to 77%; with DLD-1 cells [2] (Homo sapiens, DLD-1, 25 μM, measured 12 hours later, three independent experiments) it was 71 to 85%. The PIG3 production result in the data set with PIGs (p53-induced genes) is “did not inhibit”.
In the case of `OC[C@H]1O[C@@H](n2cnc3cc(Cl)c(Cl)cc32)[C@H](O)[C@@H]1O` [DRB, 5,6-dichlorobenimidizole riboside], the block of apoptosis in the data set with DLD-1 cells [1] was 83+/−3%. Moreover, the “expression of PIGs” value with PIGs (p53-induced genes) (Ad-p53-infected cells, DRB at 8 hours following infection) is on record as “inhibit the expression of PIGs”.
In the case of `S=C(S)N1CCCC1` [PDTC, pyrrolidine dithiocarbamate], the “block of apoptosis elicited by p53” value in the data set with DLD-1 cells [1] (p53-expressing cells treated with anti-oxidant) is given as “able to block the apoptosis”.
With `COc1cccc2c1C(=O)c1c(O)c3c(c(O)c1C2=O)C[C@@](O)(C(=O)CO)C[C@@H]3O[C@H]1C[C@H](N)[C@H](O)[C@H](C)O1` [adriamycin], the PIG3 induction entry was “not in the three lines with mutant p53 genes” in the data set with PIG3 (three CRC lines with mutant p53 genes) and “strongly induced” in the data set with PIG3 (three CRC lines with wild-type p53 genes).
In the case of `C[C@@H]1C[C@@H]([C@H](O)CC2CC(=O)NC(=O)C2)C(=O)[C@@H](C)C1` [cycloheximide], in the data set with DLD-1 cells [1], the block of apoptosis was 79%.
For the compound `OO` [hydrogen peroxide], the “PIG induction by other inducers of ROS or apoptosis” value (from here on “PIG induction by other inducers”) in the data set on PIGs (p53-induced genes) was “only p21 was induced”.
On to `COc1ccc2c(c1)c(CC(=O)O)c(C)n2C(=O)c1ccc(Cl)cc1` [indomethacin], for which, in the data set on PIGs (p53-induced genes), the “PIG induction by other inducers” value is “did not result in the expression of any PIG”. The cell death result with DLD-1 cells [5] was “extensive cell death”.
As to `CC1=CC(=O)c2ccccc2C1=O` [menadione], the “PIG induction by other inducers” value in the data set on PIGs (p53-induced genes) was “none were induced”. In addition, the “ROS (DCF fluorescence)” value in the data set on DLD-1 cells [6] was “increase in ROS”.
Regarding ceramide, the “PIG induction by other inducers” value with PIGs (p53-induced genes) is recorded as “did not result in the expression of any PIG”. The cell death entry with DLD-1 cells [5] is listed as “extensive cell death”.
